This passage reports IC50 results from US10793564B2, “Amino acid compounds and methods of use” (Pliant Therapeutics, Inc., priority 2018, dated 2020).

A value given as a limit tells only on which side of the number the result lay.

Chain of recombinant human integrin αVβ6 (P06756 31-992): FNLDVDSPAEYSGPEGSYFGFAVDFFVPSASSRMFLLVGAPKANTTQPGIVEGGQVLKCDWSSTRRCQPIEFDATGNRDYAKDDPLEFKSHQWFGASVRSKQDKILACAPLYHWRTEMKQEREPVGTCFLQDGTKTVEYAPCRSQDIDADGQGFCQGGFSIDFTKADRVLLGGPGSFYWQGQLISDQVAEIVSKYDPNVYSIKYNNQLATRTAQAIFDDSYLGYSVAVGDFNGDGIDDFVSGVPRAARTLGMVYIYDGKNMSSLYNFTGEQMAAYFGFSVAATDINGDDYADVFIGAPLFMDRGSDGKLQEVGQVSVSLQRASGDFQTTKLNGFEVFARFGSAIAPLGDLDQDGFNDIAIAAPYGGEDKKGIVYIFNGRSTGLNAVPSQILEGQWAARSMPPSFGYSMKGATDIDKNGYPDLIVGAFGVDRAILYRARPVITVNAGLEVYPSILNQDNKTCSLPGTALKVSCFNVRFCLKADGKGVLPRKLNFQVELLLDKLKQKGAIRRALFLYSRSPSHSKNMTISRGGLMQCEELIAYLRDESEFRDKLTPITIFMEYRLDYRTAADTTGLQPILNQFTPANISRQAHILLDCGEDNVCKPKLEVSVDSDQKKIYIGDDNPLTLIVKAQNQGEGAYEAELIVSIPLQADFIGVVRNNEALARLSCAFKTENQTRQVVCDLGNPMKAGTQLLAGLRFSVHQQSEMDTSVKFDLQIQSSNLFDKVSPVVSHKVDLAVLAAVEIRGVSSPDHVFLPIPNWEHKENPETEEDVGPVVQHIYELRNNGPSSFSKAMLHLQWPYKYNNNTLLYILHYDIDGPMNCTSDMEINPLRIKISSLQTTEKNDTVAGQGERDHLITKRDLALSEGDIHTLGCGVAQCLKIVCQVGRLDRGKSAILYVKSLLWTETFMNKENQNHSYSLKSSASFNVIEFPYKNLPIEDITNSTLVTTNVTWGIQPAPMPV
Chain of recombinant human integrin αVβ6 (P18564 22-707): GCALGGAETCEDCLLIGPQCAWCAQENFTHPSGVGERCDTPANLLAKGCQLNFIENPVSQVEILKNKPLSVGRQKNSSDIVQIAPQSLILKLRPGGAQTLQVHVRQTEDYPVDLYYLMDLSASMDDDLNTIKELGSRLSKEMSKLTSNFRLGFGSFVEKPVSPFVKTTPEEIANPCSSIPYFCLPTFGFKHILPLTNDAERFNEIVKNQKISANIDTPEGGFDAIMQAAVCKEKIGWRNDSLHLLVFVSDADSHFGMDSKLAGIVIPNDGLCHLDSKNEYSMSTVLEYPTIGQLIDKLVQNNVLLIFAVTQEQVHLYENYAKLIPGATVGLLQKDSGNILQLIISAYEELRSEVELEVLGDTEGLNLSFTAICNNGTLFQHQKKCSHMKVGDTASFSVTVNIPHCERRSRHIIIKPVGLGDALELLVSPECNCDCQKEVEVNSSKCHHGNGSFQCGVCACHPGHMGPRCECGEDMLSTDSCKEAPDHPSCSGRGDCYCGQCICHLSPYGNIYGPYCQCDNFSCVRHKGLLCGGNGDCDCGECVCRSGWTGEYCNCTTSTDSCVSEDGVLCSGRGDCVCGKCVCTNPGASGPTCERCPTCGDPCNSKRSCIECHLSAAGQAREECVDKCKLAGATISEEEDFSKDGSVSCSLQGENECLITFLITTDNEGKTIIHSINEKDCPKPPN

The target of this experiment is recombinant human integrin αVβ6 (Homo sapiens (Human), UniProt P06756+P18564). Kind of experiment: Solid phase integrin αVβ6 binding assay. As to conditions: inhibition of recombinant TGFβ1 LAP binding to coated integrin, IC50 presented in four ranges, read-out: αvβ6 Inhibition IC50 (nM) - range. The procedure, abridged:
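Plates coated with recombinant human αVβ6 (2 μg/mL) and blocked; compounds competed with TGFβ1 LAP (0.67 μg/mL) in Mn2+ (0.5 mM)/BSA/sucrose TBS for 2 h at 25° C. Bound LAP detected by biotin anti-LAP and peroxidase-streptavidin; IC50 by four-parameter logistic fit.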
In the case of `Cn1ncc2c(N[C@@H](CCN(CCCCc3ccc4c(n3)NCCC4)CC(F)F)C(=O)O)ncnc21` [Compound 88, (S)-4-((2,2-difluoroethyl) (4-(5,6,7,8-tetrahydro-1,8-naphthyridin-2-yl)butyl)amino)-2-((1-methyl-1H-pyrazolo[3,4-d]pyrimidin-4-yl)amino) butanoic Acid], the half-maximal inhibitory concentration (IC50) was > 1000 nM.
The value for `CO[C@H](C)CN(CCCCc1ccc2c(n1)NCCC2)CC[C@H](Nc1nc(-c2cccnc2)nc2ccccc12)C(=O)O` [Compound 100, (S)-4-(((R)-2-methoxypropyl) (4-(5,6,7,8-tetrahydro-1,8-naphthyridin-2-yl)butyl)amino)-2-((2-(pyridin-3-yl)quinazolin-4-yl)amino) butanoic Acid] was < 50 nM.
With `COCCN(CCCCc1ccc2c(n1)NCCC2)CC[C@H](Nc1ncnc2cc(Cl)ccc12)C(=O)O` [Compound 37, (S)-2-((7-chloroquinazolin-4-yl)amino)-4-((2-methoxyethyl) (4-(5,6,7,8-tetrahydro-1,8-naphthyridin-2-yl)butyl)amino) butanoic Acid] the figure was 50 to 250 nM; with `N#Cc1cnc(N[C@@H](CCN(CCCCc2ccc3c(n2)NCCC3)CCOc2ccc(F)cc2)C(=O)O)nc1` [Compound 138, (S)-2-((5-cyanopyrimidin-2-yl)amino)-4-((2-(4-fluorophenoxy)ethyl) (4-(5,6,7,8-tetrahydro-1,8-naphthyridin-2-yl)butyl)amino) butanoic Acid], < 50 nM; with `O=C(O)[C@H](CCN(CCCCc1ccc2c(n1)NCCC2)CCOc1cncc(F)c1)Nc1ncnc2ccccc12` [Compound 58, (S)-4-((2-((5-fluoropyridin-3-yl)oxy)ethyl) (4-(5,6,7,8-tetrahydro-1,8-naphthyridin-2-yl)butyl)amino)-2-(quinazolin-4-ylamino) butanoic Acid], < 50 nM.
Turning to `COc1cccc2c(N[C@@H](CCN(CCCF)CCCCc3ccc4c(n3)NCCC4)C(=O)O)ncnc12` [Compound 43, (S)-4-((3-fluoropropyl) (4-(5,6,7,8-tetrahydro-1,8-naphthyridin-2-yl)butyl)amino)-2-((8-methoxyquinazolin-4-yl)amino) butanoic Acid], the IC50 is < 50 nM.
The value for `COCCN(CCCCc1ccc2c(n1)NCCC2)CC[C@H](Nc1ncnc2cccc(F)c12)C(=O)O` [Compound 18, (S)-2-((5-fluoroquinazolin-4-yl)amino)-4-((2-methoxyethyl) (4-(5,6,7,8-tetrahydro-1,8-naphthyridin-2-yl)butyl)amino) butanoic Acid] was < 50 nM.
For `Cc1nc(N[C@@H](CCN(CCCCc2ccc3c(n2)NCCC3)CCOC2CC2(F)F)C(=O)O)c2ccc(F)cc2n1` (stereo partly drawn) [Compound 42, (2S)-4-((2-(2,2-difluorocyclopropoxy)ethyl) (4-(5,6,7,8-tetrahydro-1,8-naphthyridin-2-yl)butyl)amino)-2-((7-fluoro-2-methylquinazolin-4-yl)amino) butanoic Acid], the IC50 was < 50 nM.
As for `O=C(O)[C@H](CCN(CCCCc1ccc2c(n1)NCCC2)CC1CCO1)Nc1ncnc2ccccc12` (stereo partly drawn) [Compound 129, (2S)-4-((oxetan-2-ylmethyl) (4-(5,6,7,8-tetrahydro-1,8-naphthyridin-2-yl)butyl)amino)-2-(quinazolin-4-ylamino) butanoic Acid], the half-inhibitory concentration (IC50) was < 50 nM.
With `CO[C@H](C)CN(CCCCc1ccc2c(n1)NCCC2)CC[C@H](Nc1cc(-n2cccn2)ncn1)C(=O)O` [Compound 77, (S)-2-((6-(1H-pyrazol-1-yl)pyrimidin-4-yl)amino)-4-(((R)-2-methoxypropyl) (4-(5,6,7,8-tetrahydro-1,8-naphthyridin-2-yl)butyl)amino) butanoic Acid] the figure was < 50 nM; with `CN(C)C(=O)CN(CCCCc1ccc2c(n1)NCCC2)CC[C@H](Nc1ncc(C(F)(F)F)cn1)C(=O)O` [Compound 141, (S)-4-((2-(dimethylamino)-2-oxoethyl) (4-(5,6,7,8-tetrahydro-1,8-naphthyridin-2-yl)butyl)amino)-2-((5-(trifluoromethyl)pyrimidin-2-yl)amino) butanoic Acid], 50 to 250 nM.

One may read the IC50 as the point on the concentration scale where inhibition reaches its midpoint.
